Assay type in all cases: in vivo
The subject of assay [1] is Ctenocephalides felis. In words: Ctenocephalides felis oral test. The following applies: application rate 100 ppm in citrated cattle blood; after 2 days. The procedure, abridged: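 Percentage mortality recorded at 2 days, where 0% means no fleas killed. Compound dissolved in DMSO and diluted in citrated cattle blood, which roughly 20 unfed adult C. felis imbibe via a parafilm membrane.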

In assay [2] the test system is Amblyomma hebraeum. As to the kind of experiment: Amblyomma hebraeum test (tick nymphs, immersion). The following applies: application rate 100 ppm; tick nymphs immersed one minute; after 42 days. As for the experimental part:
(§1) Solvent: dimethyl sulphoxide
To produce an appropriate active ingredient formulation, 10 mg of active ingredient are mixed with 0.5 ml of dimethyl sulphoxide, and the concentrate is diluted with water to the desired concentration.
Tick nymphs (Amblyomma hebraeum) are placed into perforated plastic cups and immersed in the desired concentration for one minute. The ticks are transferred on filter paper into a Petri dish and stored in a climate-controlled cabinet.
After 42 days, the kill in % is determined. 100% means that all of the ticks have been killed; 0% means that none of the ticks have been killed.

Assay [3] relates to Boophilus microplus Parkhurst strain, SP-resistant. In words: Boophilus microplus dip test. The following applies: application rate 100 ppm, assessed after 7 days. The procedure: Boophilus microplus—Dip Test
Test animals: cattle ticks (Boophilus microplus) Parkhurst strain, SP-resistant
as §1
10 mg of active ingredient are dissolved in 0.5 ml of dimethyl sulphoxide. For the purpose of producing a suitable formulation, the active ingredient solution is diluted with water to the concentration desired in each case.
This active ingredient formulation is pipetted into tubes. 8-10 adult engorged female cattle ticks (Boophilus microplus) are transferred into a further tube with holes. The tube is immersed into the active ingredient formulation, and all the ticks are completely wetted. After the liquid has run out, the ticks are transferred on filter discs into plastic dishes and stored in a climate-controlled room.
Efficacy is assessed after 7 days by laying of fertile eggs. Eggs which are not visibly fertile are stored in a climate-controlled cabinet until the larvae hatch after about 42 days. An efficacy of 100% means that none of the ticks has laid any fertile eggs; 0% means that all the eggs are fertile.

Assay [4] relates to Musca domestica. As to the kind of experiment: Musca domestica test. The following applies: application rate 100 ppm; adult houseflies; after 2 days. The procedure, abridged:
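Ten adult Musca domestica are exposed to a sugar-soaked sponge carrying the water-diluted DMSO formulation; kill in % is read 2 days later.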

Assay [5] deals with Phaedon cochleariae. As to the kind of experiment: Phaedon cochleariae spray test. The following applies: application rate 100 g/ha; larvae; after 7 days. The procedure, abridged:
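Mortality of Phaedon larvae, in %, was read 7 days after release onto sprayed, dried Brassica pekinensis leaf discs. Test dilutions were prepared in water with 1000 ppm emulsifier. A score of 0% means no larvae died and 100% means all were killed.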

For assay [6], the system named is Spodoptera frugiperda. As to the kind of experiment: Spodoptera frugiperda spray test. The following applies: application rate 100 g/ha; caterpillars; after 7 days. The procedure, abridged: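 Percent kill of armyworm caterpillars was scored 7 days after they were placed on dried, sprayed Zea mays leaf discs. Spray solutions were made by dissolving active ingredient in solvent and diluting with 1000 ppm emulsifier water.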

In assay [7] the test system is Boophilus microplus. In words: Boophilus microplus injection test. The following applies: application rate 20 μg/animal; injection into abdomen; assessed after 7 days. The procedure, abridged:
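Engorged adult female ticks, five per dose, were injected in the abdomen with 1 μl of active ingredient diluted in dimethyl sulphoxide. Animals were kept in dishes under climate control, and egg fertility was assessed after 7 days.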

Assay [8] has as its system Lucilia cuprina. As to the kind of experiment: Lucilia cuprina test. The following applies: application rate 100 ppm; L1 larvae; after 2 days. The procedure, abridged:
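Mortality read at 2 days as percent larvae killed (100% = all, 0% = none). Test used roughly 20 first-instar larvae on minced horsemeat dosed with water-diluted DMSO formulation of compound.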

In assay [9] the test system is Ctenocephalides felis. In words: Ctenocephalides felis in vitro contact test with adult cat fleas. The following applies: application rate 5 μg/cm^2 (500 g/ha); after 48 h; fleas dead or moribund. The procedure, abridged:
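Adult Ctenocephalides felis (5-10 per tube) were held 48 h at room temperature in tubes whose inner walls carried dried active ingredient, e.g. 5 μg/cm^2 from a 900 ppm acetone coating. Percent efficacy reflects fleas motionless or uncoordinated after being knocked to the tube base.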

The test system of assay [10] is Tetranychus urticae. As to the kind of experiment: Tetranychus urticae spray test, OP-resistant. The following applies: application rate 100 g/ha; after 6 days. The procedure, abridged:
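Percent kill is assessed 6 days after spraying infested Phaseolus vulgaris leaf discs, with all mite stages present. Compound is applied as a solvent/emulsifier aqueous formulation at the desired concentration.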

The test system of assay [11] is Rhipicephalus sanguineus. In words: Rhipicephalus sanguineus in vitro contact test with adult brown dog ticks. The following applies: application rate 5 μg/cm^2 (500 g/ha); after 48 h; ticks dead or moribund. The procedure, abridged:
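Test tubes (25 ml) were coated by dissolving active ingredient in acetone p.a., diluting to the required concentration, and spreading 250 μl over the inner walls and base on an orbital shaker at 30 rpm for 2 h. Once dry, 5-10 adult Rhipicephalus sanguineus were added, and tubes were capped with perforated lids and kept horizontal in darkness at room temperature. At 48 h, ticks were knocked down and heated at 45-50° C. for up to 5 min. Those unable to climb away were counted dead or moribund, and efficacy ran from 0% to 100%.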

For assay [12], the system named is Myzus persicae. As to the kind of experiment: Myzus persicae spray test. The following applies: application rate 100 g/ha; after 6 days. The procedure, abridged: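 Efficacy, as % of aphids killed (0-100%), was scored 6 days after spraying. Test solutions were made in solvent diluted with water containing 1000 ppm emulsifier. They were sprayed onto Brassica pekinensis leaf discs carrying mixed-stage Myzus persicae.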

For the molecule `Cn1nc(C(F)(F)C(F)(F)F)c(C(F)(F)F)c1-n1cc(-c2ccc(Cl)c(NC(=O)c3ccncc3)c2)cn1` [Example 1-024], the “efficacy (kill in %)” value in assay [1], in assay [2], in assay [4] and in assay [8] was 100% each time. Further, the “efficacy (laying of fertile eggs)” value in assay [3] and in assay [7] was 100% each time. Further, the efficacy in [5], in assay [6], in assay [9], in [10] and in [11] was 100% throughout.
As to `Cn1nc(C(F)(F)C(F)(F)F)c(C(F)(F)F)c1-n1cc(-c2ccc(F)c(NC(=O)c3ccncc3)c2)cn1` [Example 1-025], the “efficacy (kill in %)” value in [1], in assay [2], in assay [4] and in assay [8] was 100% throughout. Moreover, the “efficacy (laying of fertile eggs)” value in assay [3] and in [7] was 100% each time. The efficacy in assay [5], in [6], in assay [9], in assay [10], in [12] and in [11] was 100% throughout.
As for `Cc1ccc(-c2cnn(-c3c(C(F)(F)F)c(C(F)(F)C(F)(F)F)nn3C)c2)cc1NC(=O)c1ccncc1` [Example 1-040], the “efficacy (kill in %)” value in assay [1], in assay [2], in assay [4] and in assay [8] was 100% throughout. Also, the “efficacy (laying of fertile eggs)” value in [3] and in [7] was 100% each time. The efficacy in [5], in assay [6], in [9], in [10], in assay [12] and in assay [11] was 100% in each case.
In the case of `Cn1nc(C(F)(F)C(F)(F)F)c(C(F)(F)F)c1-n1cc(-c2ccc(F)c(NC(=O)c3ccsc3)c2)cn1` [Example 1-041], the “efficacy (kill in %)” value in assay [1], in assay [2] and in assay [8] was 100% throughout. Besides, the “efficacy (laying of fertile eggs)” value in [3] and in [7] was 100% throughout. The efficacy in assay [5], in assay [6], in assay [9], in assay [10], in assay [12] and in [11] was 100% each time.
Regarding `Cc1cc(C(=O)Nc2cc(-c3cnn(-c4c(C(F)(F)F)c(C(F)(F)C(F)(F)F)nn4C)c3)ccc2F)ccn1` [Example 1-087], the “efficacy (kill in %)” value stood at 100% in [1], 90% in [2], 100% in assay [4] and 100% in [8]. Moreover, the “efficacy (laying of fertile eggs)” value in assay [3] and in assay [7] was 100% each time. The efficacy in assay [5] was found to be 100%; in assay [6] it was 100%; in assay [9], 100%; in [10], 100%; in assay [12], 90%; in assay [11] it was 80%.

(Values after US10273226B2, “Pyrazolyl-heteroarylamides as pesticides” (Bayer Animal Health GmbH, priority 2014, dated 2019).)
